The results in this text go back to patent US5412125A, “Dipeptidic amides derived from glycyl-serine as surfactants or hydrating agents and cosmetic, pharmaceutical or alimentary compositions containing the same” (L'Oreal, priority 1991, dated 1995).

Where a SMILES comes first, the peptide text is derived from it. The star is where a group is joined. Lauroyl = CCCCCCCCCCCC(=O)*

The nature of the series: Foaming power study (brush-developed foam in graduated cylinder). In kind it is physicochemical. The note with it: 5% aqueous solution (weight/volume), 5 ml with 6 mg natural feminine sebum; after 180 sec stirring. As for the experimental part: The test consists in developing the foam using a brush made of natural hog bristles (length=[…]) displaced in a plexiglass graduated cylindrical container (inside diameter=35 mm). This container is driven in a uniform circular motion which is the reverse of that described by the brush. This permits a good distribution of the foam in the graduated container despite the small amounts developed. (brush speed=100 rpm, container speed=10 rpm). The procedure is carried out using 5 ml of each solution studied to which has been added 6 mg of natural feminine sebum. The foam heights are recorded after one, two and three minutes of stirring.

Consider `CCCCCCCCCCCC(=O)NCC(=O)NCC(=O)[O-].[Na+]` [compound A, sodium salt of N-dodecanoyl-glycyl-glycine] (Lauroyl-Gly-Gly-OH), for which the “Foam Height (cm) at the end of a time of 180 sec” value is 20 cm.
